Measurements published in ChEMBL document CHEMBL1134942, “Synthesis and structure--activity relationship of novel aminotetralin derivatives with high micro selective opioid affinity” (Bioorg Med Chem Lett, 2002).
pKi: −log10 of the molar value.

Legend:
Mu-type opioid receptor = Mu-type opioid receptor (Homo sapiens, UniProt P35372); assay: Binding affinity for Opioid receptor mu 1
Mus musculus [1] = species on record: Mus musculus; assay: Antinociceptive activity in mice was determined using PBQ assay.; assay type: functional
Mus musculus [2] = species on record: Mus musculus; assay: Antinociceptive activity in mice was determined using Tail flick method.; assay type: functional
[3] = molecular target: Delta-type opioid receptor (Homo sapiens, UniProt P41143); assay: Binding affinity for Opioid receptor delta 1 was determined
[4] = molecular target: Kappa-type opioid receptor (Homo sapiens, UniProt P41145); assay: Binding affinity for Opioid receptor kappa 1 was determined.
Chain of Kappa-type opioid receptor (P41145 whole entry): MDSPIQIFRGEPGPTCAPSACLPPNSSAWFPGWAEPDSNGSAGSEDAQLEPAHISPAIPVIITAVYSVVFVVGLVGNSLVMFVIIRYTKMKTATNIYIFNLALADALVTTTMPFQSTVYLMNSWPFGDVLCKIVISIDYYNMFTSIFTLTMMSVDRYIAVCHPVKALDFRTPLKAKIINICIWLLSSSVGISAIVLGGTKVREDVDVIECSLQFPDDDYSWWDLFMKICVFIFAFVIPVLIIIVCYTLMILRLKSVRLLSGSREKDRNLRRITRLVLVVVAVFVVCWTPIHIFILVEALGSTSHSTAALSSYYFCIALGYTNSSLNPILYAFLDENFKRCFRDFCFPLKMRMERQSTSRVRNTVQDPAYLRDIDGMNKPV

Chain of Mu-type opioid receptor (P35372 whole entry): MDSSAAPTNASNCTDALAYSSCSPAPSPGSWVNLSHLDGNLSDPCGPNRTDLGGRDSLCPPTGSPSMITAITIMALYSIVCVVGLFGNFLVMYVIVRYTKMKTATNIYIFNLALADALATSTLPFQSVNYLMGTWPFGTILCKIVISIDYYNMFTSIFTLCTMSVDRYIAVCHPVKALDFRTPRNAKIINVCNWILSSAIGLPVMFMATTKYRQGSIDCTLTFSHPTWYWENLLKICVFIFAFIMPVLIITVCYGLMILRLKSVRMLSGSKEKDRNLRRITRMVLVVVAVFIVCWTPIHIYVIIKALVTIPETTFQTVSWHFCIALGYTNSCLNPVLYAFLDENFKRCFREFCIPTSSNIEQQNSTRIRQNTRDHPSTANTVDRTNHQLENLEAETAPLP
Chain of Delta-type opioid receptor (P41143 whole entry): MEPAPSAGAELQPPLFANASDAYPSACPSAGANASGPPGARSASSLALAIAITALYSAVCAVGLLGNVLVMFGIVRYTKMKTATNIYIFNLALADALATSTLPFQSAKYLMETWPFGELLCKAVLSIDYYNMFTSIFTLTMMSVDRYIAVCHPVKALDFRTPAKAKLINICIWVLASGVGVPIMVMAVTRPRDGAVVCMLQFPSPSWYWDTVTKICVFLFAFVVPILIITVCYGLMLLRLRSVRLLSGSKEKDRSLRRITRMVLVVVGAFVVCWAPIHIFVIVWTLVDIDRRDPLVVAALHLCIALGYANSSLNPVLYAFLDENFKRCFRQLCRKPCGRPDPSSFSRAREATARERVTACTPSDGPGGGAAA

How did the pKi (Mu-type opioid receptor) turn out when `C[S+]([O-])[C@@H]1Cc2ccc(O)cc2C(C)(C)[C@@H]1N` (stereo in doubt; 18B) was run?
Its pKi is 5.70.

`CN1CC[C@]23c4c5ccc(O)c4O[C@H]2[C@@H](O)C=C[C@H]3[C@H]1C5` [MORPHINE] was tested. Which ED50 (Mus musculus [1]) did it give?
Its ED50 is 1.6 µmol/kg.

What about the ED50 (Mus musculus [2]) of the same compound?
Its ED50 is 1.2 µmol/kg.

`CC[C@H]1Cc2ccc(O)cc2C(C)(C)[C@@H]1N` was tested. Which pKi (Mu-type opioid receptor) did it give?
The pKi was 6.87.

Which results are given for `CC[C@@H]1Cc2ccc(O)cc2C(C)(C)[C@@H]1N`?
pKi [3]: 5.35; ED50 (Mus musculus [1]): 4.8 µmol/kg; ED50 (Mus musculus [2]): 10.4 µmol/kg; pKi [4]: 6.46; pKi (Mu-type opioid receptor): 7.68

Which results are given for `CO[C@@H]1Cc2ccc(O)cc2C(C)(C)[C@@H]1N`?
pKi [3]: 5.28; ED50 (Mus musculus [1]): 1.1 µmol/kg; ED50 (Mus musculus [2]): 16 µmol/kg; pKi [4]: 6.74; pKi (Mu-type opioid receptor): 8.74

`CC1(C)c2cc(O)ccc2C[C@@H](S)[C@H]1N` was tested. Which pKi (Mu-type opioid receptor) did it give?
The pKi was 6.79.

With `CC1(C)c2cc(O)ccc2C[C@@H](O)[C@H]1N` as the compound, how does the pKi (Mu-type opioid receptor) read?
Its pKi is 6.69.

`CC1(C)c2cc(O)ccc2C[C@@H](S(C)(=O)=O)[C@H]1N` was tested. Which pKi (Mu-type opioid receptor) did it give?
Its pKi is 5.94.

With `C[C@@]12CCCCS[C@@H](Cc3ccc(O)cc31)C2N` (stereo partly specified) as the compound, how does the pKi [3] read?
The pKi was 6.38.

What about the ED50 (Mus musculus [1]) of the same compound?
The ED50 was 0.33 µmol/kg.

What about the pKi [4] of the same compound?
The pKi was 7.36.

What about the pKi (Mu-type opioid receptor) of the same compound?
Its pKi is 9.10.

With `CS[C@@H]1Cc2ccc(O)cc2C(C)(C)[C@@H]1N` as the compound, how does the pKi [3] read?
Its pKi is 6.46.

And the ED50 (Mus musculus [1])?
Its ED50 is 0.14 µmol/kg.

What about the ED50 (Mus musculus [2]) of the same compound?
Its ED50 is 0.58 µmol/kg.

And the pKi [4]?
The pKi was 7.18.

With `C[S+]([O-])[C@@H]1Cc2ccc(O)cc2C(C)(C)[C@@H]1N` (stereo in doubt; 18A) as the compound, how does the pKi (Mu-type opioid receptor) read?
The pKi was 5.98.
